# Test results reported in patent US6946447B2, “MDM2-specific antisense oligonucleotides” (Hybridon, Inc., priority 1997, dated 2005).
# Where two headings read alike, the source gives them in different places.
# Legend:
# LS174T cells = assay: LS174T cell growth by trypan blue viability staining; type: cell-based, human; settings: 72 hr, Lipofectin 7 μg/ml, read-out: IC50, inhibition of tumor cell growth
# From the text: (§1) Chemicals and Reagents. Cell culture media and phosphate-buffered saline (PBS) were obtained from Sigma Chemical Co. (St. Louis, Mo.). Fetal bovine serum (FBS), antibodies against p53 and p21, Lipofectin, trypsin, penicillin-streptomycin, and trypan blue stain were purchased from GIBCO-BRL (Grand Island, N.Y.). The anti-human-MDM2 monoclonal antibody (Chen L. et al., Proc Natl Acad Sci USA, 95: 195-200, 1998; Chen L. et al., Mol. Med. 5: 21-34, 1999) was kindly provided by J. Chen (Moffitt Cancer Center, Tampa, Fla.). Chemotherapeutic agents adriamycin and 5-fluorouracil (5-FU) were obtained from Sigma. […] The MDM2, p53 and p21 levels in cultured cells were analyzed by using the methods described previously (earlier (Chen L. et al., Proc Natl Acad Sci USA, 95: 195-200, 1998; Chen L. et al., Mol. Med. 5: 21-34, 1999; Wang H. et al., Int J. Oncol. 15: 653-660, 1999). In brief, cell lysate containing identical amounts of total protein were fractionated by SDS-PAGE and transferred to Bio-Rad Trans-Blot nitrocellulose membranes (Bio-Rad Laboratories, Hercules, Calif., USA). The nitrocellulose membrane was then incubated with blocking buffer (PBS containing 0.1% Tween 20 and 5% non-fat milk) for 1 hr at room temperature and washed with the washing buffer (PBS containing 0. […]
# DLD-1 cells = assay: DLD-1 cell growth by trypan blue viability staining; type: cell-based, human; settings: 72-hr treatment, Lipofectin, read-out: IC50, inhibition of tumor cell growth
# From the text: as §1
# [1] = mice bearing LS174T xenografts
# [2] = system: MDM2, p53 and p21 protein levels in LS174T cells; assay: Western blot of MDM2, p53 and p21 in LS174T cells; type: cell-based, human; settings: 24 hr, Lipofectin
substance,measurement,setting,value
"Oligo AS: 20-mer mixed-backbone phosphorothioate oligonucleotide with 2′-O-methyl ends, 5′UGACACCTGTTCTCACUCAC-3′; SEQ ID NO:47 (mixed phosphorothioate backbone with 2'-O-methyl ends, pattern not given here)",IC50,LS174T cells,323 nM
same,IC50,DLD-1 cells,140 nM
same,Survival Rates of Animals,[1]; day 3,100%
same,Survival Rates of Animals,[1]; day 6,100%
same,Survival Rates of Animals,[1]; day 9,100%
same,Survival Rates of Animals,[1]; day 12,100%
same,Survival Rates of Animals,[1]; day 15,100%
same,Survival Rates of Animals,[1]; day 18,100%
same,inhibition of MDM2 expression,[2]; 500 nM,greater than 90%
same,"effect on MDM2, p53 and p21 protein levels",[2]; up to 500 nM,p53 and p21 levels elevated accordingly
